Tests used:
S. gordonii DL1 [1] = test: Flow cytometric analysis of iSRCR adherence to bacteria; type: cell-based; conditions: 10 μM, compared with S. mutans
Experimental: (§1) S. mutans UA159 and S. gordonii DL1 cells were grown overnight in TSY broth media at 37° C. and washed thoroughly with FACS buffer (20 mM HEPES pH 7.4, 150 mM NaCl and 5% non-fat dry milk) to reduce non-specific binding. Subsequently, 10 μM of iSRCR1 or iSRCR123 were added to 100 μl of cells (1×10^7 cells/ml) in binding buffer (FACS buffer+2.5 mM CaCl2) and incubated for 60 min at 37° C. The cells were later washed thoroughly with binding buffer to remove unbound iSRCRs. Subsequently, Anti-His tag Alexafluor 488 antibody (1:50 dilution) (EMD Millipore, Inc) that adheres to the His tag present on SRCRs was added to the cells and incubated for 30 min, washed three times and resuspended in 200 μl of binding buffer. Samples without iSRCRs served as control. Samples were then assayed using the FACScan machine (BD Biosciences) at the Analytical and Preparative Cytometry Facility (APCF) at UAB, and data obtained was analyzed using FlowJo 7.2.4 software.

S. mutans UA159 [2] = test: as above; type: cell-based; conditions: 10 μM
Experimental: as §1

S. mutans UA159 [3] = test: Confocal microscopy of iSRCR adherence to bacteria; type: cell-based; conditions: 10 μM
Experimental: S. mutans UA159 and S. gordonii DL1 were grown overnight in TSY (30 g/L of Trypticase soy broth and 0.5 g/L yeast extract, pH 7.2) media on an eight-well Lab Tek Chamber slide system (Sigma). The cells were fixed with 3% paraformaldehyde, washed with binding buffer (20 mM HEPES pH 7.4, 150 mM NaCl and 2.5 mM CaCl2), and thereafter iSRCR1 or iSRCR123 (10 μM) were added to the cells and incubated for 60 min. The unbound SRCRs were removed by repeated washing using the binding buffer. Subsequently, Alexa fluor 488 conjugated Anti-His-tag antibody (EMD Millipore, Inc) (1:50 dilution) that can bind to the His Tag on SRCRs was added. After 60 min incubation the unbound antibody was washed away thoroughly using binding buffer, and the chamber walls were gently removed. Cover slips were then mounted with 15 μl of fluoromount-G with DAPI (Southern Biotech Inc) to stain bacterial nuclei and were sealed until ready to be imaged. The experiment without SRCRs served as control. All slides were imaged using Leica SP1 UV Confocal Laser Scanning Microscope and Zeiss LSM 710 Confocal Laser Scanning Microscope at the UAB-High resolution imaging facility (UAB-HRIF).

S. gordonii DL1 [4] = test: Aggregation assay (OD700 over 60 min); type: cell-based; conditions: iSRCR 10 μM or SAG, 6 mM CaCl2
Experimental: (§2) Aggregation assays were performed as described earlier with slight modifications. Briefly, S. mutans UA159 and S. gordonii DL1 cells were grown in TSY broth media overnight at 37° C. in the presence of 5% CO2. The bacteria were centrifuged at 5000×g and washed with a buffer containing 20 mM HEPES pH 7.4, 150 mM NaCl and re-suspended to an approximate OD700 of 1. The bacterial suspension (900 μl) was mixed with 100 μl of SAG or iSRCR1 (10 μM) or iSRCR123 ([…]) or commercially synthesized (Think Peptides, Inc) SRCRP2 peptide with fluorescein amidite (FAM) at the carboxyl end ([…]-[FAM]) (SEQ ID NO:9, at both 400 μg/ml and 1 mg/ml) in the presence of 6 mM CaCl2 and aggregation was measured by recording OD700over 60 min at 5 min intervals, where the buffer alone was used as control. All experiments were carried out at least five times, and the results were analyzed with One-way ANOVA. Post-hoc testing where *, P<0.05 was considered statistically significant and results were presented as the percentage of cells aggregated.

S. mutans UA159 [5] = test: Aggregation assay (OD700 over 60 min); type: cell-based; conditions: iSRCR 10 μM or SAG, 6 mM CaCl2
Experimental: as §2

[6] = Differential scanning calorimetry, thermostability of SRCRs with calcium; type: physicochemical; conditions: no added CaCl2
Experimental: The thermostability of SRCRs in the presence of calcium ions was analyzed using Microcal MC-II differential scanning calorimeter (GE HealthCare, USA) as described earlier. Briefly, iSRCR1 or iSRCR123 at concentration of 1 mg/ml was mixed and incubated with different concentration of CaCl2 ranging from (0-100 mM) to final volume of 400 μl of buffer containing 20 mM HEPES, 150 mM NaCl), and buffer without SRCRs served as control. Data were recorded with calorimetric scanning rates that ranged from 30° C./h to 90° C./hat 30 psi pressure. The data collected was analyzed for the unfolding temperature (Tt), and the calorimetric (ΔHcal) and van't Hoff (ΔHv) unfolding enthalpies using the Origin software package (MicroCal).

## iSRCR1: recombinant single SRCR domain construct of Gp340 (15 kDa), Drosophila expression system
S. gordonii DL1 [1]
  adherence by FACS (in words): lower adherence
S. mutans UA159 [2]
  increase in fluorescence intensity compared to the control: 10 fold
S. mutans UA159 [3]
  binding to cells by confocal microscopy (in words): binding
S. gordonii DL1 [4]
  percentage of cells aggregated: 13%
S. mutans UA159 [5]
  percentage of cells aggregated: 17%
[6]
  Tm: 56.5 °C
